The values below are quoted from earlier work in patent US20220202849A1, “PERK AS A TARGET FOR VIRUS THERAPEUTICS” (priority 2020, published 2022).

A word on the IC50: it is the midpoint of a concentration-inhibition curve.

For this series, the system named is PERK. The conditions noted are these: as quoted with vendor catalog entry; read-out: PERK inhibitor IC50.

As for `Cn1cc(-c2ccc3c(c2)CCN3C(=O)Cc2cccc(C(F)(F)F)c2)c2c(N)ncnc21` [GSK2606414], the IC50 is […].

For the compound `Cc1cccc(CC(=O)N2CCc3c2ccc(-c2cn(C)c4ncnc(N)c24)c3F)n1` [GSK2656157], the IC50 is approximately 0.9 nM.

As to `O=C(COc1ccc(Cl)cc1)N[C@H]1CC[C@@H](NC(=O)COc2ccc(Cl)cc2)CC1` [ISRIB (trans-isomer), ISRIB], the half-maximal inhibitory concentration (IC50) was approximately 5 nM.
